{
  "source": "patent US12415785B2",
  "about": "“Compound modulators of sting” (CTXT PTY LTD, priority 2019, dated 2025)",
  "target": "human STING (HAQ) (Homo sapiens, UniProt Q86WV6, G230A/H232R/R293Q)",
  "sequence (Q86WV6 whole entry G230A/H232R/R293Q, looked up)": "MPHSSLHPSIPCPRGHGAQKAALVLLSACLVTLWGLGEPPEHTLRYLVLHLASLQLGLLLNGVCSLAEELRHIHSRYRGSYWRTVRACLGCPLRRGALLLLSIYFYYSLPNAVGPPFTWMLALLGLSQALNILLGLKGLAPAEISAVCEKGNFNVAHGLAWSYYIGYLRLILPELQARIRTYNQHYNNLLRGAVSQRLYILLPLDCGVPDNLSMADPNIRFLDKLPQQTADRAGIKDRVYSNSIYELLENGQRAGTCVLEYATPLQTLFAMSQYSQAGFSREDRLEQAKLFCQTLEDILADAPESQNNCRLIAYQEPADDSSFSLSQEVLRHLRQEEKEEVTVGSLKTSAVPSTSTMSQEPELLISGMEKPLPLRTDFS",
  "assay": "Differential scanning fluorimetry (DSF), huSTING (HAQ)",
  "format": "binding",
  "conditions": "read-out: DSF huSTING (HAQ) ΔTm (° C.)",
  "method": "Biophysical experiments were performed with three different recombinant human STING protein variants designated according to allelic nomenclature of Yi et al., (2013). […] These were ligated into a modified pET43a E. coli expression vector designed to encode N-terminal His tag followed by tobacco etch virus protease (TEV) cleavage site and a STING gene sequence. The resulting protein sequences for the three allelic variants are listed below: […] Cultures were then cooled to 16° C. and protein expression induced by the addition of isopropyl β-D-1-thiogalactopyranoside to a final concentration of 0.5 mM and the cultures shaken overnight for further 16 hours. Following expression, cell cultures were centrifuged at 5000×g for 20 min and cell pellet stored frozen at −70° C. Protein purification was initiated by thawing the cell pellet in Lysis buffer (25 mM Tris-HCl pH 8.0, 300 mM NaCl, 5 mM DTT, 2 mM MgCl2, 10 mM imidazole, 0.5 mg/ml lysozyme, benzonase endonuclease [EMD Millipore], 1 mM PMSF, complete protease inhibitor tablets EDTA-free [Roche]) using a ratio of 7 ml of buffer per 1 g of cells. Cells were further lysed by 3 passes through an ice cooled Avestin C5 cell crusher and then centrifuged at 48,000×g at 4° C. […] The IMAC column was then sequentially washed with IMAC Wash buffer 1 and IMAC Wash buffer 2 (25 mM Tris-HCl pH 8.0, 300 mM NaCl, 5 mM DTT, 20 mM Imidazole) and bound His-TEV-hSTING protein eluted with IMAC Elution buffer (25 mM Tris-HCl pH 8.0, 300 mM NaCl, 5 mM DTT, 250 mM Imidazole). […] Differential scanning fluorimetry (DSF) is a rapid screening method for identifying low-molecular-weight ligands that bind and, in doing so, stabilize (or sometimes destabilize) purified proteins (Niesen 2007). DSF monitors thermal unfolding of protein in the presence of a fluorescent dye and is typically performed using a real-time PCR instrument. The temperature at which a protein unfolds is measured by an increase in the fluorescence of a dye with affinity for hydrophobic parts of the protein that are gradually being exposed during unfolding. The fluorescence of the dye is quenched in aqueous environments, but when the dye associates with hydrophobic sites on unfolded protein, its fluorescence increases. The fluorescence intensity is plotted as a function of the temperature, generating a sigmoidal curve that can be described by a two-state transition. The inflection point of the transition curve (Tm) is calculated using simple equations such as that of Boltzmann. Thermal stability of STING protein (with and without bound ligand) was measured using previously described methodology (Seabrook & Newman, 2013), with samples tested in triplicate using 96-well PCR microplate (AB Gene, ABGAB-0600/W). […] Sealed plates were placed into Bio-Rad CFX96/C1000 thermocycler and FRET scanning mode (λ^excitation of 490 nm and reads at a λ^emission of 570 nm). Melting curves were recorded from 20° C. to 100° C. in 0.5° C. increments every 30 seconds with a read at each increment. Data were analysed using “Meltdown analysis” protocol described by Rosa (2015).",
  "key": {"[1]": {"conditions": "2 μM protein, compound 100 μM, Tm with ligand minus Tm of protein alone (1% DMSO)"}},
  "note": "Read-outs that look alike come from different tables or passages of the source.",
  "data": [
    {"compound": "COc1c(C(N)=O)ccc2c1nc(-c1c(Cl)cccc1C(=O)O)n2CCn1c(-c2c(Cl)cccc2C(=O)O)nc2c(OC)c(C(N)=O)ccc21", "note": "(racemic) [Example 22, 2,2′-(Ethane-1,2-diylbis(5-carbamoyl-4-methoxy-1H-benzo[d]imidazole-1,2-diyl))bis(3-chlorobenzoic acid)]", "values": [
      {"measurement": "ΔTm at 100 µM", "setting": "[1]", "value": 28.2, "unit": "°C"}
    ]},
    {"compound": "COc1c(C(N)=O)ccc2c1nc(-c1c(I)cccc1C(=O)O)n2CCn1c(-c2c(I)cccc2C(=O)O)nc2c(OC)c(C(N)=O)ccc21", "note": "(single isomer, unassigned) [Example 19.1, 2,2′-(Ethane-1,2-diylbis(5-carbamoyl-4-methoxy-1H-benzo[d]imidazole-1,2-diyl))bis(3-iodobenzoic acid)]", "values": [
      {"measurement": "ΔTm at 100 µM", "setting": "[1]", "value": 31.7, "unit": "°C"}
    ]},
    {"compound": "COc1c(C(N)=O)ccc2c1nc(-c1c(Cl)cccc1-c1nn[nH]n1)n2CCn1c(-c2c(Cl)cccc2-c2nn[nH]n2)nc2c(OC)c(C(N)=O)ccc21", "note": "(single isomer, unassigned) [Example 23, 1,1′-(Ethane-1,2-diyl)bis(2-(2-chloro-6-(2H-tetrazol-5-yl)phenyl)-4-methoxy-1H-benzo[d]imidazole-5-carboxamide)]", "values": [
      {"measurement": "ΔTm at 100 µM", "setting": "[1]", "value": 29.2, "unit": "°C"}
    ]},
    {"compound": "COc1c(C(N)=O)ccc2c1nc(-c1ccc(Cl)cc1C(=O)O)n2CCn1c(-c2ccc(Cl)cc2C(=O)O)nc2c(OC)c(C(N)=O)ccc21", "note": "[Example 1, 6,6′-(Ethane-1,2-diylbis(5-carbamoyl-4-methoxy-1H-benzo[d]imidazole-1,2-diyl))bis(3-chlorobenzoic acid)]", "values": [
      {"measurement": "ΔTm at 100 µM", "setting": "[1]", "value": 9.44, "unit": "°C"}
    ]},
    {"compound": "NC(=O)c1ccc2c(c1)nc(-c1ccccc1C(=O)O)n2CCn1c(-c2ccccc2C(=O)O)nc2cc(C(N)=O)ccc21", "note": "[Example 2, 2,2′-(Ethane-1,2-diylbis(5-carbamoyl-1H-benzo[d]imidazole-1,2-diyl))dibenzoic acid]", "values": [
      {"measurement": "ΔTm at 100 µM", "setting": "[1]", "value": -3.48, "unit": "°C"}
    ]},
    {"compound": "COc1c(C(N)=O)ccc2c1nc(-c1ccccc1C(=O)O)n2CCn1c(-c2ccccc2C(=O)O)nc2c(OC)c(C(N)=O)ccc21", "note": "[Example 4, 2,2′-(Ethane-1,2-diylbis(5-carbamoyl-4-methoxy-1H-benzo[d]imidazole-1,2-diyl))dibenzoic acid]", "values": [
      {"measurement": "ΔTm at 100 µM", "setting": "[1]", "value": 7.23, "unit": "°C"}
    ]},
    {"compound": "NC(=O)c1ccc2c(c1)nc(-c1ccccc1-c1nn[nH]n1)n2CCn1c(-c2ccccc2-c2nnn[nH]2)nc2cc(C(N)=O)ccc21", "note": "[Example 5, 2-(2-(1H-Tetrazol-5-yl)phenyl)-1-(2-(2-(2-(2H-tetrazol-5-yl)phenyl)-5-carbamoyl-1H-benzo[d]imidazol-1-yl)ethyl)-1H-benzo[d]imidazole-5-carboxamide]", "values": [
      {"measurement": "ΔTm at 100 µM", "setting": "[1]", "value": 6.04, "unit": "°C"}
    ]},
    {"compound": "COc1c(C(N)=O)ccc2c1nc(-c1ccccc1-c1nn[nH]n1)n2CCn1c(-c2ccccc2-c2nn[nH]n2)nc2c(OC)c(C(N)=O)ccc21", "note": "[Example 6, 1,1′-(Ethane-1,2-diyl)bis(2-(2-(2H-tetrazol-5-yl)phenyl)-4-methoxy-1H-benzo[d]imidazole-5-carboxamide)]", "values": [
      {"measurement": "ΔTm at 100 µM", "setting": "[1]", "value": 5.44, "unit": "°C"}
    ]},
    {"compound": "COc1c(C(N)=O)ccc2c1nc(-c1ccc(Cl)cc1-c1nn[nH]n1)n2CCn1c(-c2ccc(Cl)cc2-c2nn[nH]n2)nc2c(OC)c(C(N)=O)ccc21", "note": "[Example 9, 1,1′-(Ethane-1,2-diyl)bis(2-(4-chloro-2-(2H-tetrazol-5-yl)phenyl)-4-methoxy-1H-benzo[d]imidazole-5-carboxamide)]", "values": [
      {"measurement": "ΔTm at 100 µM", "setting": "[1]", "value": 11.3, "unit": "°C"}
    ]},
    {"compound": "COc1c(C(N)=O)ccc2c1nc(-c1c(F)cccc1C(=O)O)n2CCn1c(-c2c(F)cccc2C(=O)O)nc2c(OC)c(C(N)=O)ccc21", "note": "[Example 10, 2,2′-(Ethane-1,2-diylbis(5-carbamoyl-4-methoxy-1H-benzo[d]imidazole-1,2-diyl))bis(3-fluorobenzoic acid)]", "values": [
      {"measurement": "ΔTm at 100 µM", "setting": "[1]", "value": 18.4, "unit": "°C"}
    ]},
    {"compound": "COc1c(C(N)=O)ccc2c1nc(-c1c(F)cc(Cl)cc1C(=O)O)n2CCn1c(-c2c(F)cc(Cl)cc2C(=O)O)nc2c(OC)c(C(N)=O)ccc21", "note": "[Example 11, 2,2′-(ethane-1,2-diylbis(5-carbamoyl-4-methoxy-1H-benzo[d]imidazole-1,2-diyl))bis(5-chloro-3-fluorobenzoic acid)]", "values": [
      {"measurement": "ΔTm at 100 µM", "setting": "[1]", "value": 22.1, "unit": "°C"}
    ]},
    {"compound": "COc1c(C(N)=O)ccc2c1nc(-c1cc(F)c(F)cc1C(=O)O)n2CCn1c(-c2cc(F)c(F)cc2C(=O)O)nc2c(OC)c(C(N)=O)ccc21", "note": "[Example 15, 6,6′-(Ethane-1,2-diylbis(5-carbamoyl-4-methoxy-1H-benzo[d]imidazole-1,2-diyl))bis(3,4-difluorobenzoic acid)]", "values": [
      {"measurement": "ΔTm at 100 µM", "value": 4.78, "unit": "°C"}
    ]},
    {"compound": "COc1c(C(N)=O)ccc2c1nc(-c1c(F)cc(F)cc1C(=O)O)n2CCn1c(-c2c(F)cc(F)cc2C(=O)O)nc2c(OC)c(C(N)=O)ccc21", "note": "[Example 16, 2,2′-(Ethane-1,2-diylbis(5-carbamoyl-4-methoxy-1H-benzo[d]imidazole-1,2-diyl))bis(3,5-difluorobenzoic acid)]", "values": [
      {"measurement": "ΔTm at 100 µM", "setting": "[1]", "value": 17.2, "unit": "°C"}
    ]},
    {"compound": "COc1c(C(N)=O)ccc2c1nc(-c1ccc(Cl)cc1-c1n[nH]c(=O)o1)n2CCn1c(-c2ccc(Cl)cc2-c2n[nH]c(=O)o2)nc2c(OC)c(C(N)=O)ccc21", "note": "[Example 17, 1,1′-(Ethane-1,2-diyl)bis(2-(4-chloro-2-(5-oxo-4,5-dihydro-1,3,4-oxadiazol-2-yl)phenyl)-4-methoxy-1H-benzo[d]imidazole-5-carboxamide)]", "values": [
      {"measurement": "ΔTm at 100 µM", "setting": "[1]", "value": 11.9, "unit": "°C"}
    ]},
    {"compound": "COc1c(C(N)=O)cc(F)c2c1nc(-c1c(F)cc(F)cc1C(=O)O)n2CCn1c(-c2c(F)cc(F)cc2C(=O)O)nc2c(OC)c(C(N)=O)cc(F)c21", "note": "[Example 18, 2,2′-(Ethane-1,2-diylbis(5-carbamoyl-7-fluoro-4-methoxy-1H-benzo[d]imidazole-1,2-diyl))bis(3,5-difluorobenzoic acid)]", "values": [
      {"measurement": "ΔTm at 100 µM", "setting": "[1]", "value": 19.1, "unit": "°C"}
    ]},
    {"compound": "COc1c(C(N)=O)cc(F)c2c1nc(-c1ccc(Cl)cc1C(=O)O)n2CCn1c(-c2ccc(Cl)cc2C(=O)O)nc2c(OC)c(C(N)=O)cc(F)c21", "note": "[Example 20, 6,6′-(Ethane-1,2-diylbis(5-carbamoyl-7-fluoro-4-methoxy-1H-benzo[d]imidazole-1,2-diyl))bis(3-chlorobenzoic acid)]", "values": [
      {"measurement": "ΔTm at 100 µM", "setting": "[1]", "value": 3.69, "unit": "°C"}
    ]},
    {"compound": "COC(=O)c1c(Br)cccc1-c1nc2c(OC)c(C(N)=O)ccc2n1CCn1c(-c2cccc(Br)c2C(=O)OC)nc2c(OC)c(C(N)=O)ccc21", "note": "[Example 21, Dimethyl 6,6′-(ethane-1,2-diylbis(5-carbamoyl-4-methoxy-1H-benzo[d]imidazole-1,2-diyl))bis(2-bromobenzoate)]", "values": [
      {"measurement": "ΔTm at 100 µM", "setting": "[1]", "value": 5.83, "unit": "°C"}
    ]},
    {"compound": "COc1c(C(N)=O)ccc2c1nc(-c1ccc(Cl)cc1-c1cn[nH]n1)n2CCn1c(-c2ccc(Cl)cc2-c2cn[nH]n2)nc2c(OC)c(C(N)=O)ccc21", "note": "[Example 24, 1,1′-(Ethane-1,2-diyl)bis(2-(4-chloro-2-(2H-1,2,3-triazol-4-yl)phenyl)-4-methoxy-1H-benzo[d]imidazole-5-carboxamide)]", "values": [
      {"measurement": "ΔTm at 100 µM", "setting": "[1]", "value": -0.08, "unit": "°C"}
    ]},
    {"compound": "COc1c(C(N)=O)ccc2c1nc(-c1ccc(C)cc1C(=O)O)n2CCn1c(-c2ccc(C)cc2C(=O)O)nc2c(OC)c(C(N)=O)ccc21", "note": "[Example 25, 6,6′-(Ethane-1,2-diylbis(5-carbamoyl-4-methoxy-1H-benzo[d]imidazole-1,2-diyl))bis(3-methylbenzoic acid)]", "values": [
      {"measurement": "ΔTm at 100 µM", "setting": "[1]", "value": -15.6, "unit": "°C"}
    ]},
    {"compound": "COc1c(C(N)=O)ccc2c1nc(-c1cc(C)ccc1C(=O)O)n2CCn1c(-c2cc(C)ccc2C(=O)O)nc2c(OC)c(C(N)=O)ccc21", "note": "[Example 26, 2,2′-(Ethane-1,2-diylbis(5-carbamoyl-4-methoxy-1H-benzo[d]imidazole-1,2-diyl))bis(4-methylbenzoic acid)]", "values": [
      {"measurement": "ΔTm at 100 µM", "setting": "[1]", "value": 6.33, "unit": "°C"}
    ]}
  ]
}
